# Read-outs that look alike come from different tables or passages of the source.
# Columns and labels:
# [1] = tested on: Erysiphae graminis; assay: Fungicidal activity against barley powdery mildew (BPM) disease, control value; type: in vivo; conditions: for pest or weed control at 2 ppm / pest or weed control at 10 ppm / pest or weed control at 50 ppm / pest or weed control at 100 ppm: 168 h, read-out: BPM control value (C.V.)
# [2] = tested on: Rhizoctonia solani AG-1; assay: Fungicidal activity against rice sheath blight (RSB) disease, control value; conditions: for pest or weed control at 2 ppm / pest or weed control at 10 ppm / pest or weed control at 50 ppm / pest or weed control at 100 ppm: Rhizoctonia solani, AG1, in Oryza sativa, read-out: RSB control value (C.V.)
# [3] = tested on: Pyricularia oryzae Carvara KA301; assay: whole plant or invertebrate; type: in vivo; conditions: for pest or weed control at 2 ppm / pest or weed control at 10 ppm / pest or weed control at 50 ppm / pest or weed control at 100 ppm: Pyricularia oryzae, read-out: RCB control value (C.V.)
# [4] = tested on: Botrytis cinerae; assay: Fungicidal activity against cucumber gray mold rot (CGM) disease, control value; type: in vivo; conditions: for CGM control value (C.V.) / pest or weed control at 100 ppm: 100 ppm; for pest or weed control at 100 ppm / pest or weed control at 50 ppm: Botrytis, read-out: CGM control value (C.V.)
# [5] = tested on: Phytophthora infestans; assay: whole plant or invertebrate; type: in vivo; conditions: for pest or weed control at 2 ppm / pest or weed control at 10 ppm / pest or weed control at 50 ppm / pest or weed control at 100 ppm: Phytophthora infestans, in Solanum lycopersicum, read-out: TLB control value (C.V.)
# [6] = tested on: Puccinia recondita; assay: Fungicidal activity against wheat leaf rust (WLR) disease, control value; type: in vivo; conditions: for pest or weed control at 2 ppm / pest or weed control at 10 ppm / pest or weed control at 50 ppm / pest or weed control at 100 ppm: read-out: WLR control value (C.V.)
# [7] = Hordeum vulgare, 2 ppm, barley powdery mildew
# [8] = Hordeum vulgare, 10 ppm, barley powdery mildew
# [9] = Hordeum vulgare, 50 ppm, barley powdery mildew
# [10] = Hordeum vulgare, 100 ppm, barley powdery mildew
smiles,measurement,setting,value
"CO/N=C(/C(=O)OC)c1ccccc1CON=C(C)c1cccc(C=C(Cl)Br)c1 [Example 35, methyl-(E)-2-[[[[[2-[3-(2-bromo-2-chlorovinyl)phenyl](1-methyl)methylidene]amino]oxy]methyl]phenyl]-2-methoxyiminoacetate]",BPM control value (C.V.),"[1]; 2 ppm, barley powdery mildew",15%
same,BPM control value (C.V.),"[1]; 10 ppm, barley powdery mildew",60%
same,BPM control value (C.V.),"[1]; 50 ppm, barley powdery mildew",93%
same,BPM control value (C.V.),"[1]; 100 ppm, barley powdery mildew",95%
same,RSB control value (C.V.),"[2]; 100 ppm, rice sheath blight",10%
same,RCB control value (C.V.),"[3]; 2 ppm, rice blast",70%
same,RCB control value (C.V.),"[3]; 10 ppm, rice blast",100%
same,RCB control value (C.V.),"[3]; 50 ppm, rice blast",100%
same,RCB control value (C.V.),"[3]; 100 ppm, rice blast",100%
same,CGM control value (C.V.),[4]; cucumber gray mold rot,50%
same,TLB control value (C.V.),"[5]; 10 ppm, tomato late blight",10%
same,TLB control value (C.V.),"[5]; 50 ppm, tomato late blight",90%
same,TLB control value (C.V.),"[5]; 100 ppm, tomato late blight",100%
same,WLR control value (C.V.),"[6]; 2 ppm, wheat leaf rust",100%
same,WLR control value (C.V.),"[6]; 10 ppm, wheat leaf rust",100%
same,WLR control value (C.V.),"[6]; 50 ppm, wheat leaf rust",100%
same,WLR control value (C.V.),"[6]; 100 ppm, wheat leaf rust",100%
"CO/N=C(/C(=O)OC)c1ccccc1COc1cccc(C=C(Cl)Cl)c1Cl [Example 43, methyl-(E)-2-(2-((2-chloro-3-(2,2-dichlorovinyl)phenoxy)methyl)phenyl)-2-methoxyiminoacetate]",pest or weed control at 2 ppm,[1]; [7],100%
same,pest or weed control at 10 ppm,[1]; [8],100%
same,pest or weed control at 50 ppm,[1]; [9],100%
same,pest or weed control at 100 ppm,[1]; [10],100%
same,pest or weed control at 2 ppm,[2],90%
same,pest or weed control at 10 ppm,[2],100%
same,pest or weed control at 50 ppm,[2],100%
same,pest or weed control at 100 ppm,[2],100%
same,pest or weed control at 2 ppm,[3],90%
same,pest or weed control at 10 ppm,[3],99%
same,pest or weed control at 50 ppm,[3],100%
same,pest or weed control at 100 ppm,[3],100%
same,pest or weed control at 100 ppm,[4]; cucumber gray mold rot,0%
same,pest or weed control at 2 ppm,[5],100%
same,pest or weed control at 10 ppm,[5],100%
same,pest or weed control at 50 ppm,[5],100%
same,pest or weed control at 100 ppm,[5],100%
same,pest or weed control at 2 ppm,"[6]; 2 ppm, wheat leaf rust",100%
same,pest or weed control at 10 ppm,"[6]; 10 ppm, wheat leaf rust",100%
same,pest or weed control at 50 ppm,"[6]; 50 ppm, wheat leaf rust",100%
same,pest or weed control at 100 ppm,"[6]; 100 ppm, wheat leaf rust",100%
"CNC(=O)/C(=N/OC)c1ccccc1COc1ccc(F)cc1C=C(Cl)Cl [Example 56, (E)-2-(2-((2-(2,2-dichlorovinyl)-4-fluorophenoxy)methyl)phenyl)-2-methoxyimino-N-methylacetamide]",pest or weed control at 2 ppm,[1]; 2 ppm,100%
same,pest or weed control at 10 ppm,[1]; 10 ppm,100%
same,pest or weed control at 50 ppm,[1]; 50 ppm,100%
same,pest or weed control at 100 ppm,[1]; 100 ppm,100%
same,pest or weed control at 2 ppm,[2],95%
same,pest or weed control at 10 ppm,[2],100%
same,pest or weed control at 50 ppm,[2],100%
same,pest or weed control at 100 ppm,[2],100%
same,pest or weed control at 2 ppm,[3],97%
same,pest or weed control at 10 ppm,[3],100%
same,pest or weed control at 50 ppm,[3],100%
same,pest or weed control at 100 ppm,[3],100%
same,pest or weed control at 50 ppm,[4],20%
same,pest or weed control at 100 ppm,[4],65%
same,pest or weed control at 2 ppm,[5],95%
same,pest or weed control at 10 ppm,[5],100%
same,pest or weed control at 50 ppm,[5],100%
same,pest or weed control at 100 ppm,[5],100%
same,pest or weed control at 2 ppm,"[6]; Puccinia recondita, 2 ppm",100%
same,pest or weed control at 10 ppm,"[6]; Puccinia recondita, 10 ppm",100%
same,pest or weed control at 50 ppm,"[6]; Puccinia recondita, 50 ppm",100%
same,pest or weed control at 100 ppm,"[6]; Puccinia recondita, 100 ppm",100%
"CO/N=C(/C(=O)OC)c1ccccc1COc1ccc(C=C(Br)Br)cc1Cl [Example 63, methyl-(E)-2-(2-((4-(2,2-dibromovinyl)-2-chlorophenoxy)methyl)phenyl)-2-methoxyiminoacetate]",pest or weed control at 2 ppm,[1]; 2 ppm,100%
same,pest or weed control at 10 ppm,[1]; 10 ppm,100%
same,pest or weed control at 50 ppm,[1]; 50 ppm,100%
same,pest or weed control at 100 ppm,[1]; 100 ppm,100%
same,pest or weed control at 2 ppm,[2],90%
same,pest or weed control at 10 ppm,[2],100%
same,pest or weed control at 50 ppm,[2],100%
same,pest or weed control at 100 ppm,[2],100%
same,pest or weed control at 2 ppm,[3],100%
same,pest or weed control at 10 ppm,[3],100%
same,pest or weed control at 50 ppm,[3],100%
same,pest or weed control at 100 ppm,[3],100%
same,pest or weed control at 50 ppm,[4],20%
same,pest or weed control at 100 ppm,[4],75%
same,pest or weed control at 2 ppm,[5],99%
same,pest or weed control at 10 ppm,[5],100%
same,pest or weed control at 50 ppm,[5],100%
same,pest or weed control at 100 ppm,[5],100%
same,pest or weed control at 2 ppm,"[6]; Puccinia recondita, 2 ppm",100%
same,pest or weed control at 10 ppm,"[6]; Puccinia recondita, 10 ppm",100%
same,pest or weed control at 50 ppm,"[6]; Puccinia recondita, 50 ppm",100%
same,pest or weed control at 100 ppm,"[6]; Puccinia recondita, 100 ppm",100%
"CCOc1cc(C=C(Br)Br)ccc1OCc1ccccc1/C(=N\OC)C(=O)NC [Example 84, (E)-2-(2-((4-(2,2-dibromovinyl)-2-ethoxyphenoxy)methyl)phenyl)-2-methoxyimino-N-methylacetamide]",pest or weed control at 2 ppm,[1]; 2 ppm,90%
same,pest or weed control at 10 ppm,[1]; 10 ppm,100%
same,pest or weed control at 50 ppm,[1]; 50 ppm,100%
same,pest or weed control at 100 ppm,[1]; 100 ppm,100%
same,pest or weed control at 2 ppm,[2],55%
same,pest or weed control at 10 ppm,[2],98%
same,pest or weed control at 50 ppm,[2],100%
same,pest or weed control at 100 ppm,[2],100%
same,pest or weed control at 2 ppm,[3],30%
same,pest or weed control at 10 ppm,[3],90%
same,pest or weed control at 50 ppm,[3],100%
same,pest or weed control at 100 ppm,[3],100%
same,pest or weed control at 100 ppm,[4],70%
same,pest or weed control at 2 ppm,[5],70%
same,pest or weed control at 10 ppm,[5],90%
same,pest or weed control at 50 ppm,[5],98%
same,pest or weed control at 100 ppm,[5],100%
same,pest or weed control at 2 ppm,"[6]; Puccinia recondita, 2 ppm",95%
same,pest or weed control at 10 ppm,"[6]; Puccinia recondita, 10 ppm",100%
same,pest or weed control at 50 ppm,"[6]; Puccinia recondita, 50 ppm",100%
same,pest or weed control at 100 ppm,"[6]; Puccinia recondita, 100 ppm",100%
CNC(=O)/C(=N/OC)c1ccccc1COc1c(OC)ccc(C=C(Br)Br)c1Br [Example 76],BPM control value (C.V.),[1]; 2 ppm,95%
same,BPM control value (C.V.),[1]; 10 ppm,100%
same,BPM control value (C.V.),[1]; 50 ppm,100%
same,BPM control value (C.V.),[1]; 100 ppm,100%
same,RSB control value (C.V.),[2]; 2 ppm,65%
same,RSB control value (C.V.),[2]; 10 ppm,98%
same,RSB control value (C.V.),[2]; 50 ppm,100%
same,RSB control value (C.V.),[2]; 100 ppm,100%
same,RCB control value (C.V.),[3]; 2 ppm,30%
same,RCB control value (C.V.),[3]; 10 ppm,90%
same,RCB control value (C.V.),[3]; 50 ppm,100%
same,RCB control value (C.V.),[3]; 100 ppm,100%
same,CGM control value (C.V.),[4],45%
same,TLB control value (C.V.),[5]; 2 ppm,70%
same,TLB control value (C.V.),[5]; 10 ppm,90%
same,TLB control value (C.V.),[5]; 50 ppm,98%
same,TLB control value (C.V.),[5]; 100 ppm,100%
same,WLR control value (C.V.),[6]; 2 ppm,95%
same,WLR control value (C.V.),[6]; 10 ppm,100%
same,WLR control value (C.V.),[6]; 50 ppm,100%
same,WLR control value (C.V.),[6]; 100 ppm,100%
"CO/N=C(/C(=O)OC)c1ccccc1CON=C(C)c1cccc(C=C(F)Cl)c1 [Example 31, methyl-(E)-2-[[[[[2-[3-(2-chloro-2-fluorovinyl)phenyl](1-methyl)methylidene]amino]oxy]methyl]phenyl]-2-methoxyiminoacetate]",BPM control value (C.V.),"[1]; 50 ppm, barley powdery mildew",60%
same,BPM control value (C.V.),"[1]; 100 ppm, barley powdery mildew",90%
same,RSB control value (C.V.),"[2]; 100 ppm, rice sheath blight",30%
same,RCB control value (C.V.),"[3]; 50 ppm, rice blast",70%
same,RCB control value (C.V.),"[3]; 100 ppm, rice blast",95%
same,CGM control value (C.V.),[4]; cucumber gray mold rot,43%
same,TLB control value (C.V.),"[5]; 100 ppm, tomato late blight",60%
same,WLR control value (C.V.),"[6]; 10 ppm, wheat leaf rust",40%
same,WLR control value (C.V.),"[6]; 50 ppm, wheat leaf rust",90%
same,WLR control value (C.V.),"[6]; 100 ppm, wheat leaf rust",100%
"CO/N=C(/C(=O)OC)c1ccccc1COc1ccc(C=C(Br)Br)cc1 [Example 7, methyl-(E)-2-(2-((4-(2,2-dibromovinyl)phenoxy)methyl)phenyl)-2-methoxyiminoacetate]",pest or weed control at 2 ppm,[1]; [7],100%
same,pest or weed control at 10 ppm,[1]; [8],100%
same,pest or weed control at 50 ppm,[1]; [9],100%
same,pest or weed control at 100 ppm,[1]; [10],100%
same,pest or weed control at 2 ppm,[2],98%
same,pest or weed control at 10 ppm,[2],100%
same,pest or weed control at 50 ppm,[2],100%
same,pest or weed control at 100 ppm,[2],100%
same,pest or weed control at 2 ppm,[3],100%
same,pest or weed control at 10 ppm,[3],100%
same,pest or weed control at 50 ppm,[3],100%
same,pest or weed control at 100 ppm,[3],100%
same,pest or weed control at 100 ppm,[4]; cucumber gray mold rot,35%
same,pest or weed control at 2 ppm,[5],100%
same,pest or weed control at 10 ppm,[5],100%
same,pest or weed control at 50 ppm,[5],100%
same,pest or weed control at 100 ppm,[5],100%
same,pest or weed control at 2 ppm,"[6]; 2 ppm, wheat leaf rust",100%
same,pest or weed control at 10 ppm,"[6]; 10 ppm, wheat leaf rust",100%
same,pest or weed control at 50 ppm,"[6]; 50 ppm, wheat leaf rust",100%
same,pest or weed control at 100 ppm,"[6]; 100 ppm, wheat leaf rust",100%

# Reference: patent publication US8410302B2, “Methoxyimino compounds and fungicide composition comprising same” (Kyung Nong Corporation, priority 2007, dated 2013)
